{"source": "patent US9321750B2", "about": "“ROR modulators and their uses” (INNOV17 LLC, priority 2012, dated 2016)", "key": {"[1]": {"test_system": "IL-17AF", "assay": "TH17 cytokine inhibition as measured by ELISA: IL-17AF", "format": "cell-based", "conditions": "120 h; human TH17 cells, 5 days differentiation, ELISA of supernatant", "description": "(§1) Peripheral blood mononuclear cells (PBMCs) were sourced from freshly prepared leukocyte enriched plasma (buffy coat) from healthy volunteers from which PBMCs were isolated by density gradient centrifugation using Ficoll-Paque™ PLUS (GE Healthcare). Naïve CD4+ T cells were isolated using the Naïve CD4+ T cell Isolation Kit II (Miltenyi Biotec) as per manufacturer's instructions. CD4+ T cells were plated at 5×10^4 cells/well in 96 well plates pre-coated with immobilized human (h)-αCD3 antibody (eBioscience) then differentiated to TH17 cells using h-αCD28, h-αIFNγ, h-αIL4, h-IL6, h-IL23, h-IL1β, h-TGFβ1 (eBioscience) and maintained in a cell culture incubator at 37° C. with 5% CO2 in TexMACS Medium (Miltenyi Biotec) supplemented with 1% Penicillin/Streptomycin (Lonza) over 5 days.\n(§2) Human CD4+ T cells were differentiated to TH17 cells as described in the presence or absence of various concentrations of compounds in a final concentration of 0.1% DMSO in TexMACS medium. Supernatants were collected and stored at −20° C. until they were to be assayed for IL-17A, IL-17F, IL-17AF, IL-21 and/or IL-22 levels as determined by Ready-Set-Go ELISA kits (eBioscience) as per manufacturer's instructions. Endpoint absorbance was read at 450 nm and 570 nm according to manufacturer's instructions (eBioscience) using a microplate reader (Perkin Elmer). The percentage of cytokine inhibition was calculated with reference to DMSO treated cells and the IC50s were determined by GraphPad Prism software and presented in the table below."}, "[2]": {"assay": "TH17 cell viability (Prestoblue)", "format": "cell-based", "set-up": "concentration or dose not given beside the values", "conditions": "human; percentage of DMSO treated cells; read-out: % viability of compound treated TH17 cells", "description": "as §1\nCells were assayed for viability in the presence or absence of compound using Prestoblue® Cell Viability Reagent (Life Technologies) as per manufacturer's instructions after 30 minutes incubation of TH17 cells with reagent. Absorbance was measured at 570 nm and 600 nm using a microplate reader (Perkin Elmer) and data were analyzed as per manufacturer's instructions. Cell viability was expressed as a percentage of DMSO treated cells."}, "[3]": {"test_system": "IL-22", "assay": "Real-time qRT-PCR in TH17 cells: IL-22 gene expression", "format": "cell-based, human", "set-up": "key: A: No change in gene expression observed relative to DMSO treated Th17 cells; B: Decreased gene expression observed relative to DMSO treated Th17 cells; C: Increased gene expression observed relative to DMSO treated Th17 cells", "description": "as §1\n(§3) RNA was isolated from TH17 cells and cDNA was synthesized using the Verso cDNA kit (Thermo Scientific) as per manufacturer's instructions. IL-17A, IL-17F, IL-21, IL-22, G-CSF, IL-23R and FOXP3 gene expression were determined for compound treated and untreated TH17 cell samples using Solaris qPCR Gene expression assays (Thermo Scientific) with an iCycler iQ Real-Time PCR Detection System (Bio-Rad). Individual gene expression was normalized to a panel of six reference genes (ACTB, TBP, HPRT1, PGK1, TFRC and PPIA) (Thermo Scientific) and analyzed by REST 2009 (Qiagen) in accordance to MIQE guidelines (Bustin et al. (2009) Clin. Chem, 55:611-622). The effects of compounds on TH17 cytokine mRNA levels are presented as fold change in gene expression of compound treated TH17 cells relative to DMSO treated cells in the table below."}, "[4]": {"test_system": "IL-23R", "assay": "Real-time qRT-PCR in TH17 cells: IL-23R gene expression", "format": "cell-based, human", "set-up": "key: A: No change in gene expression observed relative to DMSO treated Th17 cells; B: Decreased gene expression observed relative to DMSO treated Th17 cells; C: Increased gene expression observed relative to DMSO treated Th17 cells", "description": "as §1, §3"}, "[5]": {"target": "RORα LBD (Homo sapiens (Human), UniProt P35398)", "sequence (P35398 272-510)": "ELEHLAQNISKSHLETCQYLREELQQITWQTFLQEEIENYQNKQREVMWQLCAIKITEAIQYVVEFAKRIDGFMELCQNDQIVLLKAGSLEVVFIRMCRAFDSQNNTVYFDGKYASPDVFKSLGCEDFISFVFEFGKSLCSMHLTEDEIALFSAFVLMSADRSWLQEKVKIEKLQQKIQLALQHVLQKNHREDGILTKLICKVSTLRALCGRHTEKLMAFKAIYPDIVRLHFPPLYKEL", "assay": "TR-FRET co-activator D22 interaction with RORα LBD", "format": "biochemical", "description": "The Time-Resolved Fluorescence Resonance Energy Transfer (TR-FRET) assay kit (Life Technologies) was used to measure compound efficacy to disrupt or enhance ligand-mediated interaction of the co-activator and co-repressor peptides with the purified GST-tagged (i) RORγ LBD or (ii) […]. The RORγ LBD and RORα LBD each have a basal level of interaction with the co-activator D22 or co-repressor NCoR1-D2 in the absence of ligand, thus it is possible to identify compounds that inhibit or induce RORγ and/or RORα co-activator/co-repressor interactions, thus determining RORα, RORγ, or RORα/RORγ compound selectivity. The assay was performed as per manufacturer's instructions and TR-FRET was assessed 2 and 20 hours post-assay initiation. Compounds were identified to (i) have no impact on either co-activator displacement or […] from the assessed LBD (ii) promote co-activator displacement from the assessed LBD (iii) promote co-repressor recruitment to the assessed LBD or (iv) concurrently promote co-activator displacement from the assessed LBD and co-repressor recruitment to the assessed LBD."}, "[6]": {"test_system": "IL-21", "assay": "TH17 cytokine inhibition as measured by ELISA: IL-21", "format": "cell-based", "conditions": "120 h; human TH17 cells, 5 days differentiation, ELISA of supernatant", "description": "Peripheral blood mononuclear cells (PBMCs) were sourced from freshly prepared leukocyte enriched plasma (buffy coat) from healthy volunteers from which PBMCs were isolated by density gradient centrifugation using Ficoll-Paque™ PLUS (GE Healthcare). Naïve CD4+ T cells were isolated using the Naïve CD4+ T cell Isolation Kit II (Miltenyi Biotec) as per manufacturer's instructions. […]\nas §2"}, "[7]": {"conditions": "2 hr, read-out: RORα EC50 D22 co-activator displacement 2 hr"}, "[8]": {"conditions": "20 hr, read-out: RORα EC50 D22 co-activator displacement 20 hr"}}, "note": "Like-named read-outs stand apart in the source and are kept apart here.", "data": [{"smiles": "CC(=O)Nc1ccc2c(c1)CCCN2Cc1ccc(C(O)(C(F)(F)F)C(F)(F)F)cc1", "note": "[Example 2, N-(1-(4-(1,1,1,3,3,3-hexafluoro-2-hydroxypropan-2-yl)benzyl)-1,2,3,4-tetrahydroquinolin-6-yl)acetamide]", "values": [{"measurement": "IC50", "setting": "[1]", "result": "< 10", "unit": "µM"}, {"measurement": "viability", "setting": "[2]", "result": "> 80", "unit": "%"}, {"measurement": "Fold change in mRNA level of compound treated TH17 cells relative to DMSO treated cells IL-22", "setting": "[3]", "result": "A"}, {"measurement": "Fold change in mRNA level of compound treated TH17 cells relative to DMSO treated cells IL-23R", "setting": "[4]", "result": "A"}, {"measurement": "EC50", "setting": "[5]; [7]", "result": "< 30", "unit": "µM"}, {"measurement": "EC50", "setting": "[5]; [8]", "result": "> 30", "unit": "µM"}]}, {"smiles": "CC(=O)Nc1ccc2c(c1)CCN2Cc1ccc(C(O)(C(F)(F)F)C(F)(F)F)cc1", "note": "[Example 4, N-(1-(4-(1,1,1,3,3,3-hexafluoro-2-hydroxypropan-2-yl)benzyl)indolin-5-yl)acetamide]", "values": [{"measurement": "IC50", "setting": "[1]", "result": "< 10", "unit": "µM"}, {"measurement": "IC50", "setting": "[6]", "result": "< 10", "unit": "µM"}, {"measurement": "viability", "setting": "[2]", "result": "> 80", "unit": "%"}, {"measurement": "Fold change in mRNA level of compound treated TH17 cells relative to DMSO treated cells IL-22", "setting": "[3]", "result": "C"}, {"measurement": "Fold change in mRNA level of compound treated TH17 cells relative to DMSO treated cells IL-23R", "setting": "[4]", "result": "B"}, {"measurement": "EC50", "setting": "[5]; [7]", "result": "> 30", "unit": "µM"}, {"measurement": "EC50", "setting": "[5]; [8]", "result": "> 30", "unit": "µM"}]}, {"smiles": "CS(=O)(=O)Nc1ccc2c(c1)CCCN2Cc1ccc(C(O)(C(F)(F)F)C(F)(F)F)cc1", "note": "[Example 5, N-(1-(4-(1,1,1,3,3,3-hexafluoro-2-hydroxypropan-2-yl)benzyl)-1,2,3,4-tetrahydroquinolin-6-yl)methanesulfonamide]", "values": [{"measurement": "viability", "setting": "[2]", "result": "> 80", "unit": "%"}, {"measurement": "Fold change in mRNA level of compound treated TH17 cells relative to DMSO treated cells IL-22", "setting": "[3]", "result": "A"}, {"measurement": "Fold change in mRNA level of compound treated TH17 cells relative to DMSO treated cells IL-23R", "setting": "[4]", "result": "B"}, {"measurement": "EC50", "setting": "[5]; [7]", "result": "< 30", "unit": "µM"}, {"measurement": "EC50", "setting": "[5]; [8]", "result": "< 30", "unit": "µM"}]}]}
